# Laboratory results taken from article PMC5663395, “Chemical Validation of Methionyl-tRNA Synthetase as a Druggable Target in Leishmania donovani” (ACS Infectious Diseases, 2017).
# What was measured:
# LdMetRS = LdMetRS (Leishmania donovani, UniProt A0A3Q8IBX2); test: LdMetRS biochemical enzyme assay (BIOMOL Green)
# Method: LdMetRS Assay Development and Kinetic Parameter Determinations
# Activity of the LdMetRS enzyme was determined by monitoring levels of pyrophosphate released during the first step of the enzymatic reaction. The pyrophosphate formed was converted to two inorganic phosphate molecules using a pyrophosphatase enzyme and levels of the resulting phosphate molecules measured using the BIOMOL® Green reagent (Enzo Life Sciences) 2.
# Following optimization of the assay buffer and determination of the enzyme linearity, 384-well plate based assays were carried out at room temperature in a 50 μl reaction volume containing 30 mM Tris, pH 8.0, 140 mM NaCl, 30 mM KCl, 40 mM MgCl2, 0.01% (v/v) Brij-35, 1 mM DTT, 1 U/ml pyrophosphatase, 50 nM recombinant LdMetRS, and varying concentrations of substrates. Michaelis constants for the ATP and methionine substrates were determined in an end point assay using the above buffer and enzyme conditions. Data were fitted to the modified Michaelis-Menten equations […]
# Equation 1 (Hill equation): […]
# Equation 2 (High substrate inhibition Michaelis-Menten equation): […]
# LdMetRS Inhibitor Studies
# All test compounds were solubilized in 100% DMSO to a concentration of 10 mM. To generate IC50 data for the compounds, assay ready plates containing 10-point inhibitor curves (half-log serial dilutions) were prepared using an Echo® 550 (Labcyte).
# Following preparation of the inhibitor curves, assays were carried out at room temperature in clear, flat bottom, polystyrene, 384-well plates (Greiner). Each assay was performed in a 50 μl reaction volume containing 30 mM Tris; pH 8.0, 140 mM NaCl, 30 mM KCl, 40 mM MgCl2, 0.01% (v/v) Brij-35, 1 mM DTT, 1 U/ml pyrophosphatase, 50 nM recombinant LdMetRS, 50 µM methionine and 100 µM […]
# Assays were performed by adding 25 μl buffer with enzyme to assay plates (with buffer only added to ‘no enzyme’ control wells) before the reaction was initiated with the addition of a 25 μl mix containing methionine, ATP and pyrophosphatase to all wells. Following a 120 min reaction at room temperature the assay was stopped with the addition of 50 μl BIOMOL® Green. The BIOMOL® Green signal was allowed to develop for 30 min before the absorbance of each well was read at 650 nm using an EnVision multilabel plate reader (PerkinElmer Life Sciences). All liquid dispensing steps were carried out using a Thermo Scientific WellMate dispenser (Matrix).
# ActivityBase from IDBS (version 8.0.5.4) was used for data processing and analysis. All IC50 curve fitting was undertaken using ActivityBase XE (version 7.7.1) from IDBS. A four-parameter logistic dose-response curve was utilized with prefit used for all four parameters.
# For DDD806905 Kiapp determinations, data fitting to the Morrison equation (equation 3) was carried out using GraFit v6.0 (Erithacus Software). It should be noted that data for fitting to the Morrison equation was normalised to a ‘100 µM DDD806905’ control rather than a ‘no enzyme’ control as […]
# Equation 3 (Morrison equation): […]
# vi = K1 −−([ ] [ ]ET+IT+Ki)−([ ] [ ]ET+IT+i)[ ] [ ]TIE4T
# LdMetRS Mode of Inhibition Studies
# To establish the mode of inhibition of DDD806905, data sets (generated using the BIOMOL® Green assay platform previously described) were collected by varying both the inhibitor and substrate concentrations. Using GraFit v6.0 (Erithacus Software) each data set was individually fitted to the Michaelis-Menten equation or the modified high substrate inhibition Michaelis-Menten equation described above (equation 2), and the resulting Lineweaver-Burk plots were examined for diagnostic […]
# Data sets were then globally fitted to the appropriate model (with equations 4 and 5 used for […]
# If more than one model appeared possible, then data were fitted to both and examined for significance using the F-test function in GraFit.
# [1] = Plasma protein binding, equilibrium dialysis, human plasma; type: in vitro ADME; conditions: read-out: fu (unbound fraction)
# Method: which gave the best fit to the data was then recorded as the logP. Using the logP and an experimentally determined pKa (see above), the software generated a lipophilicity plot showing changes in the logD with increasing pH and from this plot a logD7.3 and logD5.6 values were recorded.
# Plasma Protein Binding Determination
# A 96-well equilibrium dialysis apparatus was used to determine the free fraction in plasma for DDD806905 (HT Dialysis LLC, Gales Ferry, CT). Membranes (12-14 kDA cut-off) were conditioned in deionised water for 60 minutes, followed by conditioning in 80:20 deionised water:ethanol for 20 minutes, and then rinsed in isotonic buffer before use. Female CD1 mouse plasma or human plasma was removed from the freezer and allowed to thaw on the day of experiment. Thawed plasma was then centrifuged (Allegra X12-R, Beckman Coulter, USA), spiked with test compound (final concentration 10 μg/ml), and 150 μL aliquots (n=6 replicate determinations) loaded into the 96-well equilibrium dialysis plate. […] All samples were analysed by UPLC-MS/MS on a Quattro Premier XE Mass Spectrometer (Waters Corporation, USA).
# The unbound fraction (fu) was determined as the ratio of the peak area in buffer to that in plasma. […]
# in vivo = conditions: female, Balb/c, mouse, iv
# LdMetRS, sequence (A0A3Q8IBX2 entry or part of it): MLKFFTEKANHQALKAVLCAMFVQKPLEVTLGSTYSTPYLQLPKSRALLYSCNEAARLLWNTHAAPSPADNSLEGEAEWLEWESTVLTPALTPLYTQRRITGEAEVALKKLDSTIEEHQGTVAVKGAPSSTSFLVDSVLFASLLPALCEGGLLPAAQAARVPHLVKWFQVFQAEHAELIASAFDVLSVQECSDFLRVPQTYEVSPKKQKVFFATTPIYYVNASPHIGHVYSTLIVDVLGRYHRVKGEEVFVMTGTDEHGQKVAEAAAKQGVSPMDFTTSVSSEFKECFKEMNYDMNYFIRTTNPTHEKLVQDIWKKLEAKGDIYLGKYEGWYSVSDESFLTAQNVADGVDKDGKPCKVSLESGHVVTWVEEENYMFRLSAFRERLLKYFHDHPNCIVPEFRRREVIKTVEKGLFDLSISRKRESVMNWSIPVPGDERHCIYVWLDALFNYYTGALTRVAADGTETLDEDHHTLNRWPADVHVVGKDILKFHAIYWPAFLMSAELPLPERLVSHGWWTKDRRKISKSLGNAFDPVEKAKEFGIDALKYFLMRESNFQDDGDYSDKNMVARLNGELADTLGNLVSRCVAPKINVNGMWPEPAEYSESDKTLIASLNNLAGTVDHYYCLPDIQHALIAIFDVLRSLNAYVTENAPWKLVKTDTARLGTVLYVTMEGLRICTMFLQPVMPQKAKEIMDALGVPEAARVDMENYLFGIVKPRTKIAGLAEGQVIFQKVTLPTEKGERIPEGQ
smiles,measurement,setting,value
"Cl.Cl.O=c1nc(NCCCNCc2cc3c(Cl)cc(Cl)cc3[nH]2)[nH]c2ccccc12 [DDD806905, 2-((3-(((4,6-dichloro-1H-indol-2-yl)methyl)amino)propyl)amino)quinazolin-4(1H)-one dihydrochloride]",mode of inhibition with respect to ATP,LdMetRS,mixed inhibition
same,mode of inhibition with respect to methionine,LdMetRS,competitive inhibition
same,Ki,"LdMetRS; Ki app (Morrison equation), active enzyme concentration 39 nM as constant",41 nM
same,Ki,"LdMetRS; Ki, competitive inhibition with respect to methionine, global competitive inhibition model, Ki ± SE",18 nM
same,Ki,"LdMetRS; Ki, mixed inhibition with respect to ATP, mixed inhibition model, Ki ± SE",21 nM
same,IC50,"LdMetRS; LdMetRS IC50 (μM), Table 1",0.09 µM
same,IC50,"LdMetRS; LdMetRS IC50, 50 nM LdMetRS, 50 μM methionine, 100 μM ATP",0.094 µM
same,IC50,"LdMetRS; LdMetRS IC50, Fig S5A: methionine 50 µM, ATP 500 µM",0.11 µM
same,IC50,"LdMetRS; LdMetRS IC50, Fig S5A: methionine 500 µM, ATP 500 µM",0.433 µM
same,IC50,"LdMetRS; LdMetRS IC50, Fig S5B: ATP 50 µM, methionine 500 µM",0.098 µM
same,IC50,"LdMetRS; LdMetRS IC50, Fig S5B: ATP 500 µM, methionine 500 µM",0.38 µM
same,IC50,"LdMetRS; LdMetRS IC50, Fig S5C: methionine and ATP both 50 µM",0.037 µM
same,IC50,"LdMetRS; LdMetRS IC50, Fig S5C: methionine and ATP both 500 µM",0.433 µM
same,Ki′ (ATP mode of inhibition study),"LdMetRS; mixed inhibition model, ATP as variable substrate",227 ± 23 nM
same,"fraction unbound at 5 h, 10 μg/ml",[1],0.007
same,Vd,in vivo,6 L/kg
